Laboratory results from ChEMBL document CHEMBL3885881, “DrugMatrix”.

Organism: Rattus norvegicus
Assay: DrugMatrix - Regimen: Daily Repeat
Assay type: toxicity, organism-based, Sprague-Dawley
Set-up: regimen Daily Repeat, gender Male, age 6-8 weeks
Details: in vivo, po, 0 mg/kg, route oral GAVAGE, dose level Control, vehicle 100 % SALINE; for ABSOLUTE BASOPHIL / ABSOLUTE EOSINOPHIL / ABSOLUTE LYMPHOCYTE / ABSOLUTE MONOCYTE / ABSOLUTE SEGMENTED NEUTROPHIL / BASOPHIL / EOSINOPHIL / ERYTHROCYTE COUNT / HEMATOCRIT / HEMOGLOBIN / LEUKOCYTE COUNT / LYMPHOCYTE / MEAN CORPUSCULAR HEMOGLOBIN / MEAN CORPUSCULAR HEMOGLOBIN CONCENTRATION / MEAN CORPUSCULAR VOLUME / MONOCYTE / NEUTROPHIL / NUCLEATED RED BLOOD CELLS / PLATELET COUNT: tissue Blood; for ALANINE AMINOTRANSFERASE / ALBUMIN / ALKALINE PHOSPHATASE / ASPARTATE AMINOTRANSFERASE / BLOOD UREA NITROGEN / CARBON DIOXIDE / CHLORIDE / CHOLESTEROL / CREATINE PHOSPHOKINASE / CREATININE / GLUCOSE / LACTATE DEHYDROGENASE / LIPASE / PHOSPHORUS / POTASSIUM / SODIUM / TOTAL BILIRUBIN / TOTAL PROTEIN / URIC ACID: tissue Plasma

## CC(CN1c2ccccc2Sc2ccccc21)N(C)C (stereo unspecified) [PROMETHAZINE]
72 h, time 3 day
  ABSOLUTE BASOPHIL: 0 CELLS/uL
  ABSOLUTE EOSINOPHIL: 65.67 CELLS/uL
  ABSOLUTE LYMPHOCYTE: 17283.5 CELLS/uL
  ABSOLUTE MONOCYTE: 0 CELLS/uL
  ABSOLUTE SEGMENTED NEUTROPHIL: 1284.17 CELLS/uL
  BASOPHIL: 0%
  EOSINOPHIL: 0.33%
  ERYTHROCYTE COUNT: 5.46 x10E6/uL
  HEMATOCRIT: 34.28%
  HEMOGLOBIN: 13.78 G/DL
  LEUKOCYTE COUNT: 18.63 x10E3/uL
  LYMPHOCYTE: 92.67%
  MEAN CORPUSCULAR HEMOGLOBIN: 25.3 pg
  MEAN CORPUSCULAR HEMOGLOBIN CONCENTRATION: 40.22 G/DL
  MEAN CORPUSCULAR VOLUME: 62.87 fL
  MONOCYTE: 0%
  NEUTROPHIL: 7%
  NUCLEATED RED BLOOD CELLS: 0 /100WBC
  PLATELET COUNT: 1244.83 x10E3/uL
  ALANINE AMINOTRANSFERASE: 52.83 u/L
  ALBUMIN: 4 G/DL
  ALKALINE PHOSPHATASE: 327.67 u/L
  ASPARTATE AMINOTRANSFERASE: 78.83 u/L
  BLOOD UREA NITROGEN: 13.83 mg/dL
  CARBON DIOXIDE: 26.67 mmol/L
  CHLORIDE: 99.67 MEQ/L
  CHOLESTEROL: 69 mg/dL
  CREATINE PHOSPHOKINASE: 350.17 u/L
  CREATININE: 0.21 mg/dL
  GLUCOSE: 173.83 mg/dL
  LACTATE DEHYDROGENASE: 168.33 u/L
  LIPASE: 11 u/L
  PHOSPHORUS: 12.7 mg/dL
  POTASSIUM: 6.88 MEQ/L
  SODIUM: 141.68 MEQ/L
  TOTAL BILIRUBIN: 0.22 mg/dL
  TOTAL PROTEIN: 6.02 G/DL
  URIC ACID: 1.9 mg/dL
120 h, time 5 day
  ABSOLUTE BASOPHIL: 0 CELLS/uL
  ABSOLUTE EOSINOPHIL: 14.83 CELLS/uL
  ABSOLUTE LYMPHOCYTE: 12880 CELLS/uL
  ABSOLUTE MONOCYTE: 90.67 CELLS/uL
  ABSOLUTE SEGMENTED NEUTROPHIL: 864.5 CELLS/uL
  BASOPHIL: 0%
  EOSINOPHIL: 0.17%
  ERYTHROCYTE COUNT: 5.83 x10E6/uL
  HEMATOCRIT: 35.87%
  HEMOGLOBIN: 14 G/DL
  LEUKOCYTE COUNT: 13.85 x10E3/uL
  LYMPHOCYTE: 92.5%
  MEAN CORPUSCULAR HEMOGLOBIN: 24.03 pg
  MEAN CORPUSCULAR HEMOGLOBIN CONCENTRATION: 39.03 G/DL
  MEAN CORPUSCULAR VOLUME: 61.53 fL
  MONOCYTE: 0.67%
  NEUTROPHIL: 6.67%
  NUCLEATED RED BLOOD CELLS: 0 /100WBC
  PLATELET COUNT: 1041.83 x10E3/uL
  ALANINE AMINOTRANSFERASE: 56 u/L
  ALBUMIN: 4.47 G/DL
  ALKALINE PHOSPHATASE: 319 u/L
  ASPARTATE AMINOTRANSFERASE: 89.17 u/L
  BLOOD UREA NITROGEN: 15.2 mg/dL
  CARBON DIOXIDE: 24 mmol/L
  CHLORIDE: 104.4 MEQ/L
  CHOLESTEROL: 69.5 mg/dL
  CREATINE PHOSPHOKINASE: 295.83 u/L
  CREATININE: 0.21 mg/dL
  GLUCOSE: 124.33 mg/dL
  LACTATE DEHYDROGENASE: 325.5 u/L
  LIPASE: 14.67 u/L
  PHOSPHORUS: 11.45 mg/dL
  POTASSIUM: 6.74 MEQ/L
  SODIUM: 151.4 MEQ/L
  TOTAL BILIRUBIN: 0.23 mg/dL
  TOTAL PROTEIN: 6.45 G/DL
  URIC ACID: 1.18 mg/dL
